This note sets out measurements from paper PMC4027965 (Molecular imaging, 2013).

The nature of this series: in vivo. As to conditions: female, athymic nude, mouse, liver, iv, 3.7 MBq (100 uCi), total radioactivity.

Consider `N=C(N)NCCC[C@@H]1NC(=O)[C@H](CSC2CC(=O)N(CCNC(=O)CCCC(=O)Nc3ccc(C4=NNC(c5ccccn5)=C5CCC(OCCF)CCCC45)nc3)C2=O)NC(=O)[C@@H](Cc2ccc(O)cc2)NC(=O)[C@H](CC(=O)O)NC(=O)CNC1=O` (stereo partly shown) [^18F-TTM-RGD], for which the tissue uptake at 2 h was 2.35 ± 0.24 %ID/g.

As a reminder, the tissue uptake is the percentage of the injected dose found per gram of tissue.
